Measurements reported in patent publication US6372466B1, “C-4 specific sulfotransferase” (Seikagaku Corporation, priority 1998, dated 2002).
Entries after “also recorded” stand apart in the source; their conditions may differ.

Tests used:
Assay type in all cases: biochemical, rat
G4ST [1] = experiment: G4ST enzymatic activity assay ([35S]PAPS sulfate transfer to chondroitin)
Procedure: The activities of G4ST and C6ST were assayed in accordance with the method of Habuchi, O. et al. (Habuchi, O., Matsui, Y., Kotoya, Y., Aoyama, Y., Yasuda, Y., and Noda, M., (1993) J. Biol. Chem., 268, 21968-21974). The reaction mixture contained imidazole hydrochloride (2.5 μmol, pH 6.8), protamine chloride (1.25 μg), dithiothreitol (0.1 μmol), chondroitin (25 nmol as glucuronic acid, derived from squid skin, prepared by the method described in Habuchi, O. and Miyata, K. (1980) Biochim. Biophys. Acta 616, 208-217), [^35S]PAPS (50 pmol: about 5.0×10^5 cpm: prepared by the method of Delfert, D. M., et al. (Delfert, D. M., and Conrad, H. E. (1985) Anal. Biochem. 148, 303-310)) and an enzyme in a final volume of 50 μl.
The above-mentioned reaction mixture was incubated at 37° C. for 20 minutes and immersed in a water bath kept at 100° C. for 1 minute to stop the enzymatic reaction. After the reaction was stopped, [^35S]-labeled chondroitin was isolated by desalting by gel chromatography using a Fast Desalting Column and precipitation with ethanol, and radioactivity was measured by the conventional manner.
To distinguish the activities of C6ST and G4ST one from another, [^35S]-labeled chondroitin was digested with chondroitinase ACII and unsaturated disaccharides (ΔDi-4S (2-acetamide-2-deoxy-3-O-(β-D-gluco-4-enepyranosyluronic acid)-4-O-sulfo-D-galactose) and ΔDi-6S (2-acetamide-2-deoxy-3-O-(β-D-gluco-4-enepyranosyluronic acid-6-O-sulfo-D-galactose)) were separated by paper chromatography (filter paper: Toyo No. 51A and solvent: 1-butanol/acetic acid/NH3 (1 M) (volume ratio 2:3:1)), the separated unsaturated disaccharides were visualized by irradiation of ultraviolet rays, the regions containing the disaccharides were cut out, and then radioactivities thereof were counted.
The amount of enzymatic activity required for transferring 1 pmol of a sulfate group for 1 minute under the conditions of 37° C. and pH 6.8 was defined as one unit as a unit of enzymatic activity.
Also, in the above-mentioned assay method for enzymatic activity, pH of imidazole hydrochloride buffer in the reaction mixture was varied (pH range: 6.3 to 7.6) and in addition, the buffer was replaced by one of buffers having various pH ranges (0.05 M, acetate buffer: pH 4.2 to 5.4, MES buffer: pH 5.4 to 6.8, Tris-HCl buffer: pH 7.2 to 9.0), and G4ST activity was assayed at each pH range (FIG. 6B).
In the above-mentioned assay method for enzymatic activity, the concentration of [^35S]PAPS in the reaction mixture was varied to measure the Km value of [^35S]PAPS as a sulfate group donor.

G4ST [2] = experiment: Substrate specificity of G4ST (sulfate transfer to glycosaminoglycans); conditions: for transfer of a sulfate group by G4ST to the glycosaminoglycan as acceptor: 25 nmol as galactosamine or glucosamine, replacing chondroitin in the reaction mixture
Procedure: According to the measurement method for enzymatic activity described above, the activity of G4ST of transferring a sulfate group to glycosaminoglycans other than chondroitin was measured. A reaction mixture used as a control of reaction was the reaction mixture described for the above-mentioned assay method for enzymatic activity (imidazole hydrochloride (2.5 μmol, pH 6.8), protamine chloride (1.25 μg), dithiothreitol (0.1 μmol), chondroitin (25 nmol as glucuronic acid), [^35S]PAPS (50 pmol: about 5.0×10^5 cpm), and an enzyme, total volume 50 μl) and the activity was measured by replacing the chondroitin contained in the above-mentioned reaction mixture as a control with (1) chondroitin sulfate A (derived from whale cartilage) (manufactured by Seikagaku Corp.), chondroitin sulfate C (derived from shark cartilage) (manufactured by Seikagaku Corp.), and chondroitin sulfate E (derived from squid cartilage) (prepared by the method described in Habuchi, O., Sugiura, K., Kawai, N. and Suzuki, S. (1977) J. Biol. Chem. 252, 4570-4576), (2) dermatan sulfate (derived from pig skin) (manufactured by Seikagaku Corp.), (3) desulfated dermatan sulfate (prepared by the method described by Nagasawa, et al. (Nagasawa, K., Inoue, Y., and Tokuyasu, T. (1995) J. Biochem. 86, 1323-1329)), (4) heparan sulfate (derived from bovine kidney) (manufactured by Seikagaku Corp.), (5) CDSNS-heparin (completely desulfated N-sulfated heparin: manufactured by Seikagaku Corp.), and (6) keratan sulfate (derived from bovine cornea) (manufactured by Seikagaku Corp.) ((1), (2) and (3) were each in an amount of 25 nmol as galactosamine, while (4), (5) and (6) were each in an amount of 25 nmol as glucosamine).
To identify a sulfate group receptor, the purified G4ST was allowed to react with various glycosaminoglycans in the presence of protamine chloride in various concentrations (FIG. 7). In FIG. 7, closed circles indicate the results on chondroitin, open circles indicates the results on desulfated dermatan sulfate, closed triangles indicate the results on chondroitin sulfate A, open triangles indicates the results on chondroitin sulfate C, and closed square indicate the results on dermatan sulfate.
Target sequence in this assay (P69478 101-352 limits assumed): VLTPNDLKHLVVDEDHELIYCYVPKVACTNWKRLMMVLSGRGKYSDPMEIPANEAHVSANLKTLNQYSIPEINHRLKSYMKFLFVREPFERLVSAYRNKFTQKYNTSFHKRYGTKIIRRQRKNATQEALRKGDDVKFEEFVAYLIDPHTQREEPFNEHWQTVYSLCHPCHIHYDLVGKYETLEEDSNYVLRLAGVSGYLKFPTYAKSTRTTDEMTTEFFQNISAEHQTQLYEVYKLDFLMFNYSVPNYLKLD

G4ST [3] = experiment: Identification of the sulfate group-transferring site of G4ST (chondroitinase digestion, HPLC / Superdex 30); conditions: 35S-labeled by G4ST, digested with chondroitinase ACII, Partisil 10-SAX HPLC
Procedure: To identify the sulfate group-transferring. site of chondroitin and desulfated dermatan sulfate, ^35S-labeled glycosaminoglycan obtained by sulfotransfer reaction by G4ST was digested with chondroitinase ACII (manufactured by Seikagaku Corp.) or chondroitinase ABC (manufactured by Seikagaku Corp.) and the digestion products were analyzed by HPLC (high performance liquid chromatography). ^35S-Labeling was performed under the same conditions as the above-mentioned assay method for enzymatic activity except that the amount of protamine chloride was increased to 10 μg. The unsaturated disaccharides obtained by the digestion of ^35S-labeled chondroitin and ^35S-labeled desulfated dermatan sulfate with chondroitinase ACII or chondroitinase ABC were isolated by HPLC using a Partisil 10-SAX column (4.5 mm×25 cm: manufactured by Whatman) equiberated with KH2PO4 (35 mM). The column was eluted by concentration gradient of KH2PO4 under the conditions of a flow rate of 1 ml/minute and a column temperature of 40° C. to recover 0.5 ml of fractions.
Further, a Superdex 30 gel chromatography was performed using a digestion product obtained by digesting ^35S-labeled desulfated dermatan sulfate with chondroitinase ABC and chondroltinase ACII or chondroitinase ACII alone. […]
Target sequence in this assay (P69478 101-352 limits assumed): as above

G4ST [4] = experiment: G4ST enzymatic activity assay ([35S]PAPS sulfate transfer to chondroitin); conditions: protamine 0.25 mg/ml
Target sequence in this assay (P69478 101-352 limits assumed): as above

[5] = SH group-containing substance in the reaction mixture

Row | Compound | effect on G4ST activity (G4ST [1]; metal ion 5 mM) | transfer of a sulfate group by G4ST to the glycosaminoglycan as acceptor (G4ST [2]) | other results
1 | O[C@H](CS)[C@H](O)CS (racemic) [dithiothreitol] |  |  | effect on G4ST activity (G4ST [1]; [5]): enhanced the activity of G4ST
2 | OCCS [2-mercaptoethanol] |  |  | effect on G4ST activity (G4ST [1]; [5]): enhanced the G4ST activity
3 | [Ba+2] [Ba^2+] | activated; also recorded: enhanced |  | 
4 | [Ca+2] [Ca^2+] | activated; also recorded: most activated; also recorded: enhanced |  | 
5 | [Co+2] [Co^2+] | inhibit the activity of G4ST; also recorded: inhibited |  | 
6 | [Fe+2] [Fe^2+] | activated; also recorded: enhanced |  | 
7 | [Mg+2] [Mg^2+] |  |  | activating action on G4ST compared with other metal ions (G4ST [1]; concentration not printed for Mg2+): lowest in such an activating action
8 | [Mn+2] [Mn^2+] | activated; also recorded: enhanced |  | 
9 | Nc1ncnc2c1ncn2[C@@H]1O[C@H](COP(=O)(O)OS(=O)(=O)O)[C@@H](OP(=O)(O)O)[C@H]1O [PAPS, 3′-phosphoadenosine 5′-phosphosulfate] |  |  | Km (G4ST [1]; [35S]PAPS as sulfate group donor, concentration varied): 0.27 µM
10 | [Sr+2] [Sr^2+] | activated; also recorded: enhanced |  | 
11 | N[C@@H](CCC(=O)N[C@@H](CS)C(=O)NCC(=O)O)C(=O)O [reduced glutathione] |  |  | effect on G4ST activity (G4ST [1]; [5]): enhanced the G4ST activity
12 | chondroitin |  | transfers a sulfate group | lowest protamine chloride concentration at which enhancement of activity was observed (G4ST [2]; protamine chloride in various concentrations): 0.25 mg/mL; radioactivity in eluted fractions of ΔDi-4S (G4ST [3]): radioactivity was detected only in the eluted fractions of ΔDi-4S
13 | chondroitin sulfate A |  | slight amount of activity; also recorded: transfers a sulfate group | 
14 | chondroitin sulfate C |  | transfers a sulfate group | 
15 | chondroitin sulfate E |  | transferred substantially no sulfate group | 
16 | dermatan sulfate |  | transferred substantially no sulfate group | 
17 | heparan sulfate |  | transferred substantially no sulfate group; also recorded: transfers substantially no sulfate group | 
18 | keratan sulfate |  | transferred substantially no sulfate group | 
19 | protamine |  |  | effect on G4ST activity (G4ST [4]): activated; also recorded: enhanced
